{"source": "patent US20210322306A1", "about": "“ORAL DISSOLVABLE FILM WITH HIGH LOAD OF POLYMERIC BINDER” (CURE Pharmaceutical Holding Corp., priority 2020, published 2021)", "origin": "cited, not measured here", "key": {"[1]": {"conditions": "neat binder"}, "[2]": {"conditions": "neat binder", "remark": "listed apart in the source"}}, "data": [{"smiles": "OC[C@H]1O[C@@H](O[C@H]2[C@H](O)[C@@H](O)C(O)O[C@@H]2CO)[C@H](O)[C@@H](O)[C@H]1O", "note": "(some centres unmarked) [Lactose]", "values": [{"measurement": "Polymeric Binder: Glass Transition Temperature (Tg) (determined by thermomechanical analysis (TMA))", "setting": "[1]", "result": 95, "unit": "°C"}, {"measurement": "Polymeric Binder: Glass Transition Temperature (Tg) (determined by differential scanning calorimetry (DSC))", "setting": "[2]", "result": 102, "unit": "°C"}]}]}
